Mutagenic call data for 7 compounds are collected here from PubChem BioAssay AID1259407 (Chemical Carcinogenesis Research Information System (CCRIS), 2018).

The test system of the series is CCRIS mutagenicity, Ames/micronucleus/aberration tests. Kind of series: CCRIS mutagenicity studies.
The mark [1] stands for this setting: Test System: AMES SALMONELLA TYPHIMURIUM, Strain/Indicator: TA98, Metabolic Activation: NONE, Method: STANDARD PLATE.
Setting [2] is: Test System: AMES SALMONELLA TYPHIMURIUM, Strain/Indicator: TA98, Metabolic Activation: RAT, LIVER, S-9, AROCLOR 1254, Method: STANDARD PLATE.
Where [3] appears, read: Test System: AMES SALMONELLA TYPHIMURIUM, Strain/Indicator: TA100, Metabolic Activation: RAT, LIVER, S-9, AROCLOR 1254, Method: STANDARD PLATE.
Where [4] appears, read: Test System: AMES SALMONELLA TYPHIMURIUM, Strain/Indicator: TA100, Metabolic Activation: NONE, Method: STANDARD PLATE.

Molecules are shown by their SMILES. The source made the active and inactive calls. How the calls were made is not given here.

In the case of `C1=Cc2cc3c4ccccc4ccc3c3cccc1c23`, the mutagenic call runs as follows: under setting [1], “inactive; negative”; (Test System: AMES SALMONELLA TYPHIMURIUM, Strain/Indicator: TA98, Metabolic Activation: RAT, LIVER, S-9, AROCLOR 1254 (0.127 OR 1.27 MG S-9 PROTEIN), Method: STANDARD PLATE) “active; positive”; under setting [2], “active; positive”; under setting [3], “active; positive”; (Test System: AMES SALMONELLA TYPHIMURIUM, Strain/Indicator: TA1535, Metabolic Activation: RAT, LIVER, S-9, AROCLOR 1254, Method: STANDARD PLATE) “inactive; negative”; (Test System: AMES SALMONELLA TYPHIMURIUM, Strain/Indicator: TA1537, Metabolic Activation: RAT, LIVER, S-9, AROCLOR 1254, Method: STANDARD PLATE) “active; positive”. The mutagenic call (Test System: AMES SALMONELLA TYPHIMURIUM, Strain/Indicator: TA1538, Metabolic Activation: RAT, LIVER, S-9, AROCLOR 1254, Method: STANDARD PLATE) was “active; positive”.
Turning to `O=[N+]([O-])c1ccc2ccc3ccc([N+](=O)[O-])cc3c2c1`, the mutagenic call runs as follows: (Test System: AMES SALMONELLA TYPHIMURIUM, Strain/Indicator: TA98(1,8-DNP6), Metabolic Activation: NONE, Method: STANDARD PLATE) “active; positive”; (Test System: AMES SALMONELLA TYPHIMURIUM, Strain/Indicator: TA98(NR), Metabolic Activation: NONE, Method: STANDARD PLATE) “active; positive”; under setting [1], “active; positive”; under setting [4], “active; positive”; (Test System: AMES SALMONELLA TYPHIMURIUM, Strain/Indicator: YG1021, Metabolic Activation: NONE, Method: STANDARD PLATE) “active; positive”; (Test System: AMES SALMONELLA TYPHIMURIUM, Strain/Indicator: YG1024, Metabolic Activation: NONE, Method: STANDARD PLATE) “active; positive”. Further, the mutagenic call is, setting by setting: (Test System: AMES SALMONELLA TYPHIMURIUM, Strain/Indicator: YG1026, Metabolic Activation: NONE, Method: STANDARD PLATE) “active; positive”; (Test System: AMES SALMONELLA TYPHIMURIUM, Strain/Indicator: YG1029, Metabolic Activation: NONE, Method: STANDARD PLATE) “active; positive”.
For `Nc1ncn[nH]1`, the mutagenic call was “inactive; negative” (Test System: AMES SALMONELLA TYPHIMURIUM, Strain/Indicator: TA97, Metabolic Activation: HAMSTER, LIVER, S-9, AROCLOR 1254 (10 OR 30%), Method: PREINCUBATION); “inactive; negative” (Test System: AMES SALMONELLA TYPHIMURIUM, Strain/Indicator: TA97, Metabolic Activation: NONE, Method: PREINCUBATION); “inactive; negative” (Test System: AMES SALMONELLA TYPHIMURIUM, Strain/Indicator: TA97, Metabolic Activation: RAT, LIVER, S-9, AROCLOR 1254 (10 OR 30%), Method: PREINCUBATION); “inactive; negative” (Test System: AMES SALMONELLA TYPHIMURIUM, Strain/Indicator: TA98, Metabolic Activation: HAMSTER, LIVER, S-9, AROCLOR 1254 (10 OR 30%), Method: PREINCUBATION); “inactive; negative” (Test System: AMES SALMONELLA TYPHIMURIUM, Strain/Indicator: TA98, Metabolic Activation: NONE, Method: PREINCUBATION); “inactive; negative” (Test System: AMES SALMONELLA TYPHIMURIUM, Strain/Indicator: TA98, Metabolic Activation: PROSTAGLANDIN H SYNTHASE, Method: PREINCUBATION). Moreover, the mutagenic call is “inactive; negative” (Test System: AMES SALMONELLA TYPHIMURIUM, Strain/Indicator: TA98, Metabolic Activation: RAT, LIVER, S-9, AROCLOR 1254 (10 OR 30%), Method: PREINCUBATION); “inactive; negative” (Test System: AMES SALMONELLA TYPHIMURIUM, Strain/Indicator: TA100, Metabolic Activation: HAMSTER, LIVER, S-9, AROCLOR 1254 (10 OR 30%), Method: PREINCUBATION); “inactive; negative” (Test System: AMES SALMONELLA TYPHIMURIUM, Strain/Indicator: TA100, Metabolic Activation: NONE, Method: PREINCUBATION); “inactive; negative” (Test System: AMES SALMONELLA TYPHIMURIUM, Strain/Indicator: TA100, Metabolic Activation: RAT, LIVER, S-9, AROCLOR 1254 (10 OR 30%), Method: PREINCUBATION); “inactive; negative” (Test System: AMES SALMONELLA TYPHIMURIUM, Strain/Indicator: TA1535, Metabolic Activation: HAMSTER, LIVER, S-9, AROCLOR 1254 (10 OR 30%), Method: PREINCUBATION); “inactive; negative” (Test System: AMES SALMONELLA TYPHIMURIUM, Strain/Indicator: TA1535, Metabolic Activation: NONE, Method: PREINCUBATION). Moreover, the mutagenic call (Test System: AMES SALMONELLA TYPHIMURIUM, Strain/Indicator: TA1535, Metabolic Activation: RAT, LIVER, S-9, AROCLOR 1254 (5 OR 10%), Method: PREINCUBATION) was “inactive; negative”; the mutagenic call (Test System: AMES SALMONELLA TYPHIMURIUM, Strain/Indicator: TA1535, Metabolic Activation: RAT, LIVER, S-9, AROCLOR 1254 (30%), Method: PREINCUBATION) is “inactive; negative”; the mutagenic call (Test System: E. COLI, Strain/Indicator: WP2 UVRA, Metabolic Activation: HAMSTER, LIVER, S-9, AROCLOR 1254, Method: STANDARD PLATE) was “inactive; negative”; the mutagenic call (Test System: E. COLI, Strain/Indicator: WP2 UVRA, Metabolic Activation: HAMSTER, LIVER, S-9, Method: STANDARD PLATE) was “inactive; negative”; the mutagenic call (Test System: E. COLI, Strain/Indicator: WP2 UVRA, Metabolic Activation: MOUSE, LIVER, S-9, AROCLOR 1254, Method: STANDARD PLATE) is “inactive; negative”; the mutagenic call (Test System: E. COLI, Strain/Indicator: WP2 UVRA, Metabolic Activation: MOUSE, LIVER, S-9, Method: STANDARD PLATE) is “inactive; negative”. In addition, the mutagenic call is, setting by setting: (Test System: E. COLI, Strain/Indicator: WP2 UVRA, Metabolic Activation: NONE, Method: STANDARD PLATE) “inactive; negative”; (Test System: E. COLI, Strain/Indicator: WP2 UVRA, Metabolic Activation: RAT, LIVER, S-9, AROCLOR 1254, Method: STANDARD PLATE) “inactive; negative”; (Test System: E. COLI, Strain/Indicator: WP2 UVRA, Metabolic Activation: RAT, LIVER, S-9, Method: STANDARD PLATE) “inactive; negative”; (Test System: MOUSE LYMPHOMA, Strain/Indicator: L5178Y (TK+/TK-), Metabolic Activation: NONE, Method: SUSPENSION/PLATE) “inactive; negative”; (Test System: MOUSE LYMPHOMA, Strain/Indicator: L5178Y (TK+/TK-), Metabolic Activation: RAT, LIVER, S-9, AROCLOR 1254, Method: SUSPENSION/PLATE) “inactive; negative”; (Test System: MOUSE LYMPHOMA, Strain/Indicator: L5178Y (TK+/TK-), Metabolic Activation: RAT, LIVER, S-9, Method: SUSPENSION/PLATE) “inactive; negative”.
As to `CC(=O)NSc1c2cc(O)ccc2nc2ccc(O)cc12`, under “Test System: AMES SALMONELLA TYPHIMURIUM, Strain/Indicator: TA97A, Metabolic Activation: NONE, Method: PREINCUBATION”, the mutagenic call is “active; positive”.
With `COC(=O)Nc1nc2ccc(/C(=N/O)c3ccc(F)cc3)cc2[nH]1`, the mutagenic call runs as follows: under setting [1], “inactive; negative”; under setting [2], “active; positive”; under setting [4], “inactive; negative”; under setting [3], “inactive; negative”.
`CCc1ccc(NC(=O)c2csc([N+](=O)[O-])c2)cc1`: the mutagenic call is, setting by setting: under setting [1], “active; positive”; under setting [4], “active; positive”.
Take `COc1ccc(N/C=C/C2=[N+](C)c3ccccc3C2(C)C)c(OC)c1`: the mutagenic call by setting is: (Test System: Ames Salmonella typhimurium, Strain/Indicator: TA98, Metabolic Activation: None, Method: Preincubation) “inactive; negative”; (Test System: Ames Salmonella typhimurium, Strain/Indicator: TA98, Metabolic Activation: Rat, Liver, S-9, Aroclor 1254, Method: Preincubation) “inactive; negative”; (Test System: Ames Salmonella typhimurium, Strain/Indicator: TA100, Metabolic Activation: None, Method: Preincubation) “inactive; negative”; (Test System: Ames Salmonella typhimurium, Strain/Indicator: TA100, Metabolic Activation: Rat, Liver, S-9, Aroclor 1254, Method: Preincubation) “inactive; negative”; (Test System: Ames Salmonella typhimurium, Strain/Indicator: TA102, Metabolic Activation: None, Method: Preincubation) “inactive; negative”; (Test System: Ames Salmonella typhimurium, Strain/Indicator: TA102, Metabolic Activation: Rat, Liver, S-9, Aroclor 1254, Method: Preincubation) “inactive; negative”. Also, the mutagenic call reads like this: (Test System: Ames Salmonella typhimurium, Strain/Indicator: TA1535, Metabolic Activation: None, Method: Preincubation) “inactive; negative”; (Test System: Ames Salmonella typhimurium, Strain/Indicator: TA1535, Metabolic Activation: Rat, Liver, S-9, Aroclor 1254, Method: Preincubation) “inactive; negative”.
